Data set [1] deals with tonic hindlimb extensor seizures in mice. Put plainly: Threshold maximal (low-intensity) electroshock, tonic extensor seizures. In kind it is in vivo. Particulars: for ED50: IV, mouse, 17 mA. On the procedure:
Threshold maximum electroshock is an animal model test for generalized seizures that is similar to that of Piredda S G, et al, Pharmacol. and Exptl. Therap. […] The methods for this test are described as follows.
Male CF-1 mice (22-30 g) were allowed free access to food and water prior to testing. For screening, groups of five mice were given a compound intravenously at doses of 30, 100, and 300 mg/kg and tested at 0.5, 2.0, and 4.0 hours after dosing. Drugs were either dissolved in 0.9% saline or suspended in 0.2% methylcellulose. Animals were shocked with corneal electrodes (see below) and observed for tonic hindlimb extensor seizures. Absence of hindlimb extension was taken as an anticonvulsant effect.
The electroshock apparatus delivered a 60 Hz sine wave with a current amplitude of 14 mA (peak-to-peak) for 0.2 seconds.
(§1) For anticonvulsant testing, male CF-1 strain mice (20-25 g) and male Sprague-Dawley rats (75-115 g) were obtained from Charles River Laboratories and were maintained with free access to food and water before testing. […] Briefly, mice were given test substance and were tested for prevention of seizures by application of electrical current to the corneas by 2 metal electrodes covered with gauze and saturated with 0.9% sodium chloride. Electroshock stimulation was delivered by a constant-current device that produced 60 Hz sinusoidal electrical current for 0.2 seconds. For rats, maximal electroshock stimulation consisted of 120 mA of current. […] Any mouse that fell from the wire mesh during a 60 second test period was rated as ataxic.

Data set [2] relates to maximal electroshock seizures in mice. Put plainly: Maximal electroshock in mice. The data set is classed as in vivo. Particulars: mouse. From the text:
For anticonvulsant testing, male CF-1 strain mice (20-25 g) and male Sprague-Dawley rats (75-115 g) were obtained from Charles River Laboratories and were maintained with free access to food and water before testing. Maximal electroshock was delivered with corneal electrodes by conventional methods (Krall, supra, 1975) except that low-intensity electroshock with mice consisted of 17 mA of current rather than the conventional 50 mA (zero to peak). Briefly, mice were given test substance and were tested for prevention of seizures by application of electrical current to the corneas by 2 metal electrodes covered with gauze and saturated with 0.9% sodium chloride. Electroshock stimulation was delivered by a constant-current device that produced 60 Hz sinusoidal electrical current for 0.2 seconds. For rats, maximal electroshock stimulation consisted of 120 mA of current. Ataxia in mice was assessed by the inverted screen procedure in which mice were individually placed on a 4.0-inch square of wire mesh that was subsequently inverted (Coughenour, supra, 1978). Any mouse that fell from the wire mesh during a 60 second test period was rated as ataxic.
All drugs were freely soluble in aqueous media. For in vivo studies, drug solutions were made in 0.9% sodium chloride and given in a volume of 1 mL/100 g body weight. Intravenous administration was given by bolus injection into the retro-orbital sinus in mice. Oral administrations were by intragastric gavage.

Data set [3] can be described thus: Ataxia in mice (inverted screen procedure). Particulars: male, CF-1, in vivo, mouse. On the procedure:
as §1

Data set [4] addresses T1, Gabapentin Receptor (Rattus norvegicus, UniProt P54290).
T1 construct: partially purified synaptic plasma membranes were prepared from rat neocortex; from tissue; host or cells: rat neocortex synaptic plasma membranes
Description: Gabapentin receptor binding, displacement of [3H]-gabapentin. On the procedure:
For binding studies, partially purified synaptic plasma membranes were prepared from rat neocortex using sucrose density gradients. The cerebral cortex of 10 rats was dissected from the rest of the brain and homogenized in 10 volumes (weight/volume) of ice-cold 0.32 M sucrose in 5 mM tris-acetate (pH 7.4) using a glass homogenizer fitted with a teflon pestle (10-15 strokes at 200 rpm). The homogenate was centrifuged at 100 g for 10 minutes and the supernatant collected and kept on ice. The pellet (PI) was rehomogenized in 20 mL of tris-sucrose and the homogenate recentrifuged. The combined supernatants were centrifuged at 21,500 g for 20 minutes. The pellet (P2) was resuspended in 1.2 M tris-sucrose and 15 mL of this mixture was added to ultracentrifuge tubes. On to this, 10 mL of 0.9 M sucrose was layered followed by a final layer of 5 mM tris-acetate, pH 8.0. Tubes were centrifuged at 100,000 g for 90 minutes. The synaptic plasma membranes located at the 0.9/1.2 M sucrose interface. were collected, resuspended in 50 mL of 5 mM tris-acetate, pH 7.4, and centrifuged at 48,000 g. The final pellet was resuspended in 50 mL of tris-acetate, pH 7.4, aliquoted, and then frozen until use.
The assay tissue (0.1 to 0.3 mg protein) was incubated with […] [^3H]-gabapentin in 10 mM HEPES buffer (pH 7.4 at 20° C., sodium free) in the presence of varying concentrations of test compound for 30 minutes at room temperature, before filtering onto GFB filters under vacuum. Filters were washed 3 times with 5 mL of ice cold 100 mM NaCl solution and dpm bound to filters was determined using liquid scintillation counting. Nonspecific binding was defined by that observed in the presence of […] gabapentin.
(In a radioligand displacement assay an active substance lowers the binding of a labelled ligand.)

Where [5] appears, read: IV, read-out: IV Mouse Maximal Electroshock (ED50).
[6] abbreviates: IV, read-out: IV Mouse Ataxia (ED50).
Setting [7] is: PO, read-out: PO Mouse Maximal Electroshock (ED50).

Read-outs that look alike come from different tables or passages of the source.

T1 sequence (P54290 25-1091): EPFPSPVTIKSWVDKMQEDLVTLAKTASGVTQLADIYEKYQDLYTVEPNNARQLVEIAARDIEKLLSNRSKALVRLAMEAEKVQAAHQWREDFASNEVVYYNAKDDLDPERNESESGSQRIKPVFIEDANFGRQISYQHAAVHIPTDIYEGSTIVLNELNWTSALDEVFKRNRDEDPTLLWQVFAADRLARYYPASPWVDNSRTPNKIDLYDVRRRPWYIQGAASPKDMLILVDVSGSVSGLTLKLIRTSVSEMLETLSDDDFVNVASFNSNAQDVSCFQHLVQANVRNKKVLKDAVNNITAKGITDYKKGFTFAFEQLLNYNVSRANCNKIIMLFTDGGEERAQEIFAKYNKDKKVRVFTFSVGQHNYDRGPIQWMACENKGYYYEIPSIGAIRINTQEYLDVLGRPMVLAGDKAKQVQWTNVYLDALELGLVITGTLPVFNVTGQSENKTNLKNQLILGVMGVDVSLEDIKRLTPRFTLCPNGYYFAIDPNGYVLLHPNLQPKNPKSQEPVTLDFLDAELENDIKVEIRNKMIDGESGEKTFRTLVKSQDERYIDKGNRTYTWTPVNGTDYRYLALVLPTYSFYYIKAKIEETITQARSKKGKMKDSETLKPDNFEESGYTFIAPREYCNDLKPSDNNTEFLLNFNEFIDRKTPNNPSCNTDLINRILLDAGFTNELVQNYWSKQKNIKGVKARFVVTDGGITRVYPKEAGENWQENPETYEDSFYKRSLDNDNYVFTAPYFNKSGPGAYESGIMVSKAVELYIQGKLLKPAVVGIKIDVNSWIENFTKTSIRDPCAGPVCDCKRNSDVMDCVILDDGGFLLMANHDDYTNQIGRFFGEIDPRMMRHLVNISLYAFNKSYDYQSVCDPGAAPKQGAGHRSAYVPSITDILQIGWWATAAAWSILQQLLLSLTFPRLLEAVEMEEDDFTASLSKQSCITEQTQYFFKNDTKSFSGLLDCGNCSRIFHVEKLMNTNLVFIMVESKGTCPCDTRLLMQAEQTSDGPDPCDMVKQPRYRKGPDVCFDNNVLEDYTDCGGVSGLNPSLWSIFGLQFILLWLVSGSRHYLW

With `CC(C)C[C@@H](CN)CC(=O)O` [(R)-IBG, (R)(−)-4-amino-3-(2-methylpropyl)butanoic acid], the ED50 in data set [1], in data set [2] (setting [5]) and in data set [3] (setting [6]) was over 100 mg/kg in each case. Also, the IC50 (in general, the concentration that inhibits the measured activity by half) in data set [4] was found to be 860 nM.
Turning to `CC(C)C[C@H](CN)CC(=O)O` [(S)-IBG, (S)-(+)-4-Amino-3-(2-methylpropyl)butanoic Acid], the 50% effective dose (ED50) (commonly the dose at which the effect has come halfway, by size or by number of responders) was 4 mg/kg in data set [1], 18 mg/kg in data set [2] (setting [5]), 12 mg/kg in data set [2] (setting [7]) and over 300 mg/kg in data set [3] (setting [6]). Besides, the IC50 in data set [4] came to 44 nM.
On to `CC(C)CC(CN)CC(=O)O` (racemic) [(R,S)-i-C4H9, H, 4-amino-3-(2-methylpropyl)butanoic acid], for which the 50% effective dose (ED50) is 4.8 mg/kg in data set [1], 10 mg/kg in data set [2] (setting [5]), 47 mg/kg in data set [2] (setting [7]) and over 100 mg/kg in data set [3] (setting [6]). The “time of maximum protection, threshold maximal electroshock” value in data set [1] (mice, 10 mg/kg intravenously, tested 1 hour to 8 hours) came to 2 h. Besides, the “# Protected, threshold maximal electroshock” value was 2/10 in data set [1] (mice, 10 mg/kg intravenously, time of testing 1 hr.); 8/10 in data set [1] (mice, 10 mg/kg intravenously, time of testing 2 hr.); 4/10 in data set [1] (mice, 10 mg/kg intravenously, time of testing 4 hr.); 2/10 in data set [1] (mice, 10 mg/kg intravenously, time of testing 8 hr.). Besides, in data set [1] (mice, intravenously, two hour testing time), the “calculated EDSO, threshold maximal electroshock dose response” value is given as 2.07 mg/kg. In data set [4], the IC50 worked out at 100 nM.
`NCC1(CC(=O)O)CCCCC1` [Gabapentin, gabapentin, reference compound]: the ED50 was 4.3 mg/kg in data set [1]; 75 mg/kg in data set [2] (setting [5]); 200 mg/kg in data set [2] (setting [7]); over 100 mg/kg in data set [3] ((IP), read-out: Mouse Ataxia (ED50)).

The values above are taken from patent US6414024B1, “GABA and L-glutamic acid analogs for antiseizure treatment” (Northwestern University, priority 1990, dated 2002).
